From the supplement of paper PMC10331698
± gives the standard deviation of the averaged measurements.

Experiments:
Test in all cases: level (log10 ratio to DMSO vehicle control); higher = higher biomarker level / cell amount than vehicle control
Settings in all cases: in DMSO
[1] = compound: C=CC(F)(F)C(F)(F)C(F)(F)C(F)(F)C(F)(F)C(F)(F)C(F)(F)C(F)(F)C=C [1,8-Divinylperfluorooctane]
Protocol: (§1)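 BioMAP Diversity Plus panel of 12 human primary cell co-culture systems (3C, 4H, LPS, SAg, BT, BF4T, BE3C, CASM3C, HDF3CGF, KF3CT, MyoF, Mphg). Compounds were added 1 h before stimulation and left for 24 h (MyoF 48 h; BT 72 h for soluble read-outs or 6 d for IgG). Biomarkers were read by ELISA, cytotoxicity by SRB, PBMC viability and proliferation by Alamar Blue. Each well value was divided by the mean of 8 DMSO control wells on the same plate and log10 transformed; duplicate blinded samples were tested at 4 concentrations.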

[2] = compound: COC(=O)CCC(F)(F)C(F)(F)C(F)(F)C(F)(F)F [Methyl 2H,2H,3H,3H-perfluoroheptanoate]
Protocol: as §1

[3] = compound: FC(F)(F)C(F)(F)C(F)(F)C(F)(F)C(F)(F)C(F)(F)C(F)(F)C(F)(F)CCS [2-(Perfluorooctyl)ethanthiol]
Protocol: as §1

Perfluoroheptanoic acid = compound: O=C(O)C(F)(F)C(F)(F)C(F)(F)C(F)(F)C(F)(F)C(F)(F)F [Perfluoroheptanoic acid]
Protocol: as §1

Perfluorobutanoic acid = compound: O=C(O)C(F)(F)C(F)(F)C(F)(F)F [Perfluorobutanoic acid]
Protocol: as §1

[4] = compound: O=C(O)C(F)(F)OC(F)(F)C(F)(F)OC(F)(F)C(=O)O [Perfluoro-3,6-dioxaoctane-1,8-dioic acid]
Protocol: as §1

[5] = compound: O=C(O)C(F)(F)OC(F)(F)C(F)(F)OC(F)(F)F [Perfluoro-3,6-dioxaheptanoic acid]
Protocol: as §1

Test System	level (log10) ([1]; 6700 nM)	level (log10) ([1]; 20000 nM)	level (log10) ([2]; 6700 nM)	level (log10) ([2]; 20000 nM)	level (log10) ([2]; 60000 nM)	level (log10) ([3]; 6700 nM)	level (log10) ([3]; 20000 nM)	level (log10) (Perfluoroheptanoic acid; 6700 nM)	level (log10) (Perfluoroheptanoic acid; 20000 nM)	level (log10) (Perfluoroheptanoic acid; 60000 nM)	level (log10) (Perfluorobutanoic acid; 6700 nM)	level (log10) (Perfluorobutanoic acid; 20000 nM)	level (log10) (Perfluorobutanoic acid; 60000 nM)	level (log10) ([4]; 6700 nM)	level (log10) ([4]; 20000 nM)	level (log10) ([4]; 60000 nM)	level (log10) ([5]; 6700 nM)	level (log10) ([5]; 20000 nM)	level (log10) ([5]; 60000 nM)
4H:CD62P/P-selectin	-0.009 ± 0.018	-0.035 ± 0.064	-0.0325 ± 0.071	-0.017 ± 0.064	0.0135 ± 0.053	0.019 ± 0.0071	-0.017	0.007 ± 0.018	0.0035 ± 0.016	0.0605 ± 0.05	0.086 ± 0.076	0.0575 ± 0.0035	0.09 ± 0.054	-0.004	0.014 ± 0.0014	0.0275 ± 0.013	-0.0245 ± 0.061	0.0025 ± 0.0092	-0.0185 ± 0.018
SAg:Proliferation	0.0155 ± 0.0064	0.0455 ± 0.013	0.0115 ± 0.029	0.001 ± 0.0014	0.0075 ± 0.0078	0.056 ± 0.016	0.0225 ± 0.03	0.0045 ± 0.032	0.0275 ± 0.035	0.028 ± 0.034	-0.04 ± 0.0099	0.0325 ± 0.029	-0.0065 ± 0.039	-0.017 ± 0.05	-0.011 ± 0.035	-0.0085 ± 0.021	-0.023 ± 0.061	-0.005 ± 0.025	0.0115 ± 0.04
BT:B cell Proliferation	0.0035 ± 0.037	0.035 ± 0.0085	-0.022 ± 0.023	-0.019 ± 0.047	-0.001 ± 0.05	-0.007 ± 0.0057	0.038 ± 0.0042	0.018 ± 0.0085	0.0145 ± 0.033	0.061 ± 0.028	0.0085 ± 0.00071	-0.029 ± 0.014	0.002 ± 0.0042	0.0095 ± 0.016	-0.009 ± 0.023	0.0035 ± 0.0035	0.015 ± 0.0028	0.031 ± 0.048	0.0535 ± 0.042
3C:Proliferation	0 ± 0.016	0 ± 0.013	-0.035 ± 0.0028	-0.029 ± 0.018	0.018 ± 0.03	0.0355 ± 0.029	-0.016 ± 0.013	-0.0365 ± 0.028	0.0245 ± 0.057	-0.109 ± 0.057	-0.0225 ± 0.084	-0.02 ± 0.061	0.024 ± 0.042	0.002 ± 0.0028	-0.038 ± 0.044	-0.033 ± 0.014	-0.0305 ± 0.025	-0.031 ± 0.05	-0.0205 ± 0.0064
BE3C:CD54/ICAM-1	0.0085 ± 0.015	0.0055 ± 0.013	-0.0075 ± 0.0092	0.0105 ± 0.018	0.002 ± 0.011	-0.0055 ± 0.028	-0.0055 ± 0.015	-0.007 ± 0.0071	-0.023 ± 0.0028	-0.0055 ± 0.022	-0.0015 ± 0.023	-0.0165 ± 0.0092	0.011 ± 0.025	-0.003 ± 0.021	-0.0035 ± 0.0092	0.002 ± 0.038	-0.032 ± 0.0042	-0.0125 ± 0.0021	-0.0325 ± 0.015
LPS:CXCL8/IL-8	-0.0055 ± 0.005	0.0145 ± 0.0078	-0.0075 ± 0.023	-0.016 ± 0.0071	0.022 ± 0.016	-0.0195 ± 0.035	0.0235 ± 0.053	0.0085 ± 0.033	0.027 ± 0.03	0.105 ± 0.059	-0.0055 ± 0.005	-0.0165 ± 0.00071	0.0095 ± 0.011	0.015	0.0085 ± 0.021	0.0385 ± 0.021	0.007 ± 0.028	0.0265 ± 0.0064	0.0505 ± 0.0078
LPS:M-CSF	-0.029	-0.007 ± 0.031	-0.0005 ± 0.0035	0.002 ± 0.011	0.0105 ± 0.043	0.0095 ± 0.0035	-0.0035 ± 0.0092	-0.028 ± 0.024	-0.008 ± 0.018	-0.007 ± 0.038	0.004 ± 0.014	-0.005 ± 0.016	0.003 ± 0.03	0.0035 ± 0.005	-0.002 ± 0.0028	0.021	-0.0505 ± 0.056	-0.014 ± 0.055	-0.0185 ± 0.057
